Reference: patent publication US7541368B2, “Pyrazoles as inhibitors of tumor necrosis factor” (Aventis Pharmaceuticals Inc., priority 2003, dated 2009)

Legend:
[1] = target: T1, Inactive N-terminal His6 tagged murine P38 (Mus musculus, UniProt P47811); assay: p38 cascade assay (HTRF; inactive p38 activated by MKK-6, ATF-2 phosphorylation); assay type: biochemical; conditions: inactive p38 preincubated with compound, then MKK-6, ATF-2, ATP; read-out: 50% inhibition in the p38 cascade assay at concentrations within the range
T1 construct: His6 (N); made in house
Protocol: The homogeneous time resolved fluorescence method (HTRF) assay measured the phosphorylation of human activating transcription factor (ATF)-2 protein by P38 following activation by MKK-6 and was run in A384 well plate format. […] MBP-tagged mouse MKK-6 (final concentration 50 nM), GST-tagged ATF-2 (fmal concentration 200 nM) and ATP (final concentration 50 μM) were then added and the incubation continued for 90 min. p38, MKK-6 and ATF-2 were prepared in the Protein Production Group, Aventis Pharmaceuticals. XL665 labeled anti-GST antibody (Cis Bio International) and cryptate labeled anti-pbospho-ATF2 antibody (Cis Bio International) were then added to generate the specific signal proportional to the phosphorylation of the substrate. The close proximity of XL665 labeled anti-GST antibody/phosphorylated GST-ATF2 complex and the cryptate labeled anti-phospho-ATF2 antibody results in a fluorescence transfer from cryptate to XL665. The resulting fluorescence signal was than read on a LJL Acquest set at multi-method mode using a fluorescence filter set (E=360 nm, Em=615/665 nm) with UV dichroic mirror (Integration time: 300000 μs). The results are reported as IC50 values. Compounds were tested over the concentration range of 3×10^−10M to 3×10^−5M.

[2] = system: TNF-alpha release in THP-1 cells; assay: LPS-induced TNF-alpha release in THP-1 cells; assay type: cell-based; conditions: Homo sapiens, THP-1, LPS-stimulated THP-1 cells; read-out: 50% inhibition in the LPS-induced TNF-alpha release in THP-1 cells assay at concentrations within the range
How it was run: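 TNF-alpha in supernatants was quantified by sandwich ELISA against a log/log recombinant standard curve (0.125-16 ng/ml). Before this, THP-1 cells (1×10^6 cells/ml, serum-reduced) received compound at 1×10^−9 to 1×10^−6 M in 0.3% DMSO for 1 h, then LPS 20 μg/ml for 18 h.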

T1 sequence (P47811 whole entry): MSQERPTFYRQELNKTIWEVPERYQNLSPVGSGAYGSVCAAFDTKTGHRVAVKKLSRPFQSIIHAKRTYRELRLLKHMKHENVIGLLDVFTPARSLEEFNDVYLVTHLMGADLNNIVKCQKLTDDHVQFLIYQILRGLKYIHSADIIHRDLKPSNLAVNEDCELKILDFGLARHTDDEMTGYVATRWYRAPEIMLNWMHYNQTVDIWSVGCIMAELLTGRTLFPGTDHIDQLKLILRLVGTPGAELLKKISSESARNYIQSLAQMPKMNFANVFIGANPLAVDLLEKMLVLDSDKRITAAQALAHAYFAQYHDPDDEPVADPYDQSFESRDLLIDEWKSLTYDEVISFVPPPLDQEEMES

Row | IC50 [1] | IC50 [2] | Compound
1 | 10 to 100 nM | 10 to 500 nM | COc1ccc(C(=O)N2CCC(Cc3cccc(NC(=O)Nc4cc(C(C)(C)C)nn4-c4ccc(C)cc4)c3)CC2)c(C)c1 [Compound A120, 1-(5-tert-Butyl-2-p-tolyl-2H-pyrazol-3-yl)-3-{3-[1-(4-methoxy-2-methyl-benzoyl)-piperidin-4-ylmethyl]-phenyl}-urea]
2 | 10 to 100 nM | 10 to 500 nM | Cc1ccc(-n2nc(C(C)(C)C)cc2NC(=O)Nc2ccc(CC3CCN(C(=O)c4ccc5ncccc5c4)CC3)cc2)cc1 [Compound A386, 1-(5-tert-Butyl-2-p-tolyl-2H-pyrazol-3-yl)-3-{4-[1-(quinoline-6-carbonyl)-piperidin-4-ylmethyl]-phenyl}-urea]
3 | 10 to 100 nM | 10 to 500 nM | Cc1ccc(-n2nc(C(C)(C)C)cc2NC(=O)Nc2ccc(CC3CCN(C(=O)c4ccsc4)CC3)cc2)cc1 [Compound A294, 1-(5-tert-Butyl-2-p-tolyl-2H-pyrazol-3-yl)-3-{4-[1-(thiophene-3-carbonyl)-piperidin-4-ylmethyl]-phenyl}-urea]
4 | 10 to 100 nM | 10 to 500 nM | Cc1ccc(-n2nc(C(C)(C)C)cc2NC(=O)Nc2cccc(CC3CCN(C(=O)c4cccnc4C)CC3)c2)cc1 [Compound A59, 1-(5-tert-Butyl-2-p-tolyl-2H-pyrazol-3-yl)-3-{3-[1-(2-methyl-pyridine-3-carbonyl)-piperidin-4-ylmethyl]-phenyl}-urea]
5 | 10 to 100 nM | 10 to 500 nM | Cc1ccc(-n2nc(C(C)(C)C)cc2NC(=O)Nc2ccc(CC3CCN(C(=O)c4ccncc4)CC3)cc2)cc1 [Compound A364, 1-(5-tert-Butyl-2-p-tolyl-2H-pyrazol-3-yl)-3-{4-[1-(pyridine-4-carbonyl)-piperidin-4-ylmethyl]-phenyl}-urea]
6 | 10 to 100 nM | 10 to 500 nM | Cc1ccc(-n2nc(C(C)(C)C)cc2NC(=O)Nc2ccc(CC3CCN(C(=O)c4nccnc4N)CC3)cc2)cc1 [Compound A283, 1-{4-[1-(3-Amino-pyrazine-2-carbonyl)-piperidin-4-ylmethyl]-phenyl}-3-(5-tert-butyl-2-p-tolyl-2H-pyrazol-3-yl)-urea]
7 | 10 to 100 nM | 10 to 500 nM | Cc1ccc(-n2nc(C(C)(C)C)cc2NC(=O)Nc2cccc(CC3CCN(C(=O)c4csc(-c5ccncc5)n4)CC3)c2)cc1 [Compound A34, 1-(5-tert-Butyl-2-p-tolyl-2H-pyrazol-3-yl)-3-{3-[1-(2-pyridin-4-yl-thiazole-4-carbonyl)-piperidin-4-ylmethyl]-phenyl}-urea]
8 | 10 to 100 nM | 10 to 500 nM | CC(=O)NCC(=O)N1CCC(Cc2ccc(NC(=O)Nc3cc(C(C)(C)C)nn3-c3ccc(C)cc3)cc2)CC1 [Compound A375, N-[2-(4-{4-[3-(5-tert-Butyl-2-p-tolyl-2H-pyrazol-3-yl)-ureido]-benzyl}-piperidin-1-yl)-2-oxo-ethyl]-acetamide]
9 | 10 to 100 nM | 10 to 500 nM | Cc1ccc(-n2nc(C(C)(C)C)cc2NC(=O)Nc2ccc(CC3CCN(C(=O)OCc4ccccc4)CC3)cc2)cc1 [Compound A1610, 4-{4-[3-(5-tert-Butyl-2-p-tolyl-2H-pyrazol-3-yl)-ureido]-benzyl}-piperidine-1-carboxylic acid benzyl ester]
10 | 10 to 100 nM | 10 to 500 nM | Cc1ccc(-n2nc(C(C)(C)C)cc2NC(=O)Nc2ccc(CC3CCN(C(=O)c4sc(C)nc4C)CC3)cc2)cc1 [Compound A219, 1-(5-tert-Butyl-2-p-tolyl-2H-pyrazol-3-yl)-3-{4-[1-(2,4-dimethyl-thiazole-5-carbonyl)-piperidin-4-ylmethyl]-phenyl}-urea]
11 | 10 to 100 nM | 10 to 500 nM | Cc1ccc(-n2nc(C(C)(C)C)cc2NC(=O)Nc2ccc(CC3CCN(C(=O)Cc4ccc(F)cc4F)CC3)cc2)cc1 [Compound A217, 1-(5-tert-Butyl-2-p-tolyl-2H-pyrazol-3-yl)-3-(4-{1-[2-(2,4-difluoro-phenyl)-acetyl]-piperidin-4-ylmethyl}-phenyl)-urea]
12 | 10 to 100 nM | 10 to 500 nM | Cc1ccc(-n2nc(C(C)(C)C)cc2NC(=O)Nc2ccc(CC3CCN(C(=O)c4cnccn4)CC3)cc2)cc1 [Compound A256, 1-(5-tert-Butyl-2-p-tolyl-2H-pyrazol-3-yl)-3-{4-[1-(pyrazine-2-carbonyl)-piperidin-4-ylmethyl]-phenyl}-urea]
13 | 10 to 100 nM | 10 to 500 nM | COc1ccc(OC)c(C(=O)N2CCC(Cc3ccc(NC(=O)Nc4cc(C(C)(C)C)nn4-c4ccc(C)cc4)cc3)CC2)c1 [Compound A220, 1-(5-tert-Butyl-2-p-tolyl-2H-pyrazol-3-yl)-3-{4-[1-(2,5-dimethoxy-benzoyl)-piperidin-4-ylmethyl]-phenyl}-urea]
14 | 10 to 100 nM | 10 to 500 nM | Cc1ccc(-n2nc(C(C)(C)C)cc2NC(=O)Nc2ccc(CC3CCN(C(=O)c4cccc(C)n4)CC3)cc2)cc1 [Compound A334, 1-(5-tert-Butyl-2-p-tolyl-2H-pyrazol-3-yl)-3-{4-[1-(6-methyl-pyridine-2-carbonyl)-piperidin-4-ylmethyl]-phenyl}-urea]
15 | 10 to 100 nM | 10 to 500 nM | Cc1ccc(-n2nc(C(C)(C)C)cc2NC(=O)Nc2cccc(CC3CCN(C(=O)CNC(=O)c4ccccc4)CC3)c2)cc1 [Compound A163, N-[2-(4-{3-[3-(5-tert-butyl-2-p-tolyl-2H-pyrazol-3-yl)-ureido]-benzyl}-piperidin-1-yl)-2-oxo-ethyl]-benzamide]
16 | 10 to 100 nM | 10 to 500 nM | Cc1ccc(-n2nc(C(C)(C)C)cc2NC(=O)Nc2ccc(CC3CCN(C(=O)CCOc4ccccc4)CC3)cc2)cc1 [Compound A292, 1-(5-tert-Butyl-2-p-tolyl-2H-pyrazol-3-yl)-3-{4-[1-(3-phenoxy-propionyl)-piperidin-4-ylmethyl]-phenyl}-urea]
17 | 10 to 100 nM | 10 to 500 nM | Cc1ccc(-n2nc(C(C)(C)C)cc2NC(=O)Nc2ccc(CC3CCN(C(=O)c4cccnc4)CC3)cc2)cc1 [Compound A377, 1-(5-tert-Butyl-2-p-tolyl-2H-pyrazol-3-yl)-3-{4-[1-(pyridine-3-carbonyl)-piperidin-4-ylmethyl]-phenyl}-urea]
18 | 10 to 100 nM | 10 to 500 nM | CC(=O)NCC(=O)N1CCC(Cc2cccc(NC(=O)Nc3cc(C(C)(C)C)nn3-c3ccc(C)cc3)c2)CC1 [Compound A179, N-[2-(4-{3-[3-(5-tert-Butyl-2-p-tolyl-2H-pyrazol-3-yl)-ureido]-benzyl}-piperidin-1-yl)-2-oxo-ethyl]-acetamide]
19 | 10 to 100 nM | 10 to 500 nM | Cc1ccc(-n2nc(C(C)(C)C)cc2NC(=O)Nc2ccc(CC3CCN(C(=O)c4ccc5[nH]ccc5c4)CC3)cc2)cc1 [Compound A361, 1-(5-tert-Butyl-2-p-tolyl-2H-pyrazol-3-yl)-3-{4-[1-(1H-indole-5-carbonyl)-piperidin-4-ylmethyl]-phenyl}-urea]
20 | 10 to 100 nM | 10 to 500 nM | Cc1ccc(-n2nc(C(C)(C)C)cc2NC(=O)Nc2ccc(CC3CCN(C(=O)CNC(=O)c4ccccc4)CC3)cc2)cc1 [Compound A352, N-[2-(4-{4-[3-(5-tert-Butyl-2-p-tolyl-2H-pyrazol-3-yl)-ureido]-benzyl}-piperidin-1-yl)-2-oxo-ethyl]-benzamide]
21 | 10 to 100 nM | 10 to 500 nM | CC(=O)OCc1ccc(C(=O)N2CCC(Cc3ccc(NC(=O)Nc4cc(C(C)(C)C)nn4-c4ccc(C)cc4)cc3)CC2)cc1 [Compound A336, Acetic acid 4-(4-{4-[3-(5-tert-butyl-2-p-tolyl-2H-pyrazol-3-yl)-ureido]-benzyl}-piperidin-1-carbonyl)-benzyl ester]
22 | 10 to 100 nM | 10 to 500 nM | Cc1ccc(-n2nc(C(C)(C)C)cc2NC(=O)Nc2ccc(CC3CCN(C(=O)c4oc5ccccc5c4C)CC3)cc2)cc1 [Compound A290, 1-(5-tert-Butyl-2-p-tolyl-2H-pyrazol-3-yl)-3-{4-[1-(3-methyl-benzofuran-2-carbonyl)-piperidin-4-ylmethyl]-phenyl}-urea]
23 | 10 to 100 nM | 10 to 500 nM | CC(=O)Nc1cccc(C(=O)N2CCC(Cc3cccc(NC(=O)Nc4cc(C(C)(C)C)nn4-c4ccc(C)cc4)c3)CC2)c1 [Compound A88, N-[3-(4-{3-[3-(5-tert-Butyl-2-p-tolyl-2H-pyrazol-3-yl)-ureido]-benzyl}-piperidine-1-carbonyl)-phenyl]-acetamide]
24 | 10 to 100 nM | 10 to 500 nM | COc1cscc1C(=O)N1CCC(Cc2cccc(NC(=O)Nc3cc(C(C)(C)C)nn3-c3ccc(C)cc3)c2)CC1 [Compound A123, 1-(5-tert-Butyl-2-p-tolyl-2H-pyrazol-3-yl)-3-{3-[1-(4-methoxy-thiophene-3-carbonyl)-piperidin-4-ylmethyl]-phenyl}-urea]
